# Assay results taken from PubChem BioAssay (NCI).
#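 Cells were grown in 96-well plates and exposed to each compound for 48 hours at five concentrations; endpoints were interpolated linearly between bracketing concentrations, or set to the highest concentration if not reached. Definition used: TGI = concentration required for complete inhibition of growth.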
# Experiments:
# Experiment in all cases: inhibition of tumour cell growth, NCI panel, 48 h
# A549 NSCLC = system: A549 NSCLC
# ACHN renal = system: ACHN renal
# EKVX NSCLC = system: EKVX NSCLC
# HCT-116 colon = system: HCT-116 colon
# HOP-92 NSCLC = system: HOP-92 NSCLC
# LOX IMVI melanoma = system: LOX IMVI melanoma
# NCI-H226 lung = system: NCI-H226 lung
# NCI-H522 lung = system: NCI-H522 lung
# NCI/ADR-RES ovarian = system: NCI/ADR-RES ovarian
# RPMI-8226 leukemia = system: RPMI-8226 leukemia
# RXF 393 renal = system: RXF 393 renal
# SF-268 CNS = system: SF-268 CNS
# SF-539 CNS = system: SF-539 CNS
# SK-MEL-2 melanoma = system: SK-MEL-2 melanoma
# SNB-19 CNS = system: SNB-19 CNS
# HCT-15 colon = system: HCT-15 colon
# HL-60(TB) leukemia = system: HL-60(TB) leukemia
smiles,measurement,setting,value
O=C1N(Cc2ccccc2)C2CSCC2N1Cc1ccccc1 (stereo not given),TGI,A549 NSCLC,> 100 µM
same,TGI,ACHN renal,> 100 µM
same,TGI,EKVX NSCLC,79.3 µM
same,TGI,HCT-116 colon,> 100 µM
same,TGI,HOP-92 NSCLC,77.7 µM
same,TGI,LOX IMVI melanoma,93.1 µM
same,TGI,NCI-H226 lung,64.6 µM
same,TGI,NCI-H522 lung,24.2 µM
same,TGI,NCI/ADR-RES ovarian,69.4 µM
same,TGI,RPMI-8226 leukemia,59 µM
same,TGI,RXF 393 renal,69.4 µM
same,TGI,SF-268 CNS,> 100 µM
same,TGI,SF-539 CNS,76 µM
same,TGI,SK-MEL-2 melanoma,46.4 µM
same,TGI,SNB-19 CNS,> 100 µM
C[C@@H]1CC[C@H]2[C@H]1[C@H]1[C@@H](CC[C@]2(C)N=C=S)C1(C)C,TGI,HCT-116 colon,31.7 µM
same,TGI,HCT-15 colon,64.6 µM
same,TGI,HL-60(TB) leukemia,54.3 µM
same,TGI,HOP-92 NSCLC,84.7 µM
same,TGI,LOX IMVI melanoma,> 100 µM
same,TGI,NCI-H226 lung,38.8 µM
same,TGI,NCI/ADR-RES ovarian,43.9 µM
same,TGI,RPMI-8226 leukemia,43.4 µM
same,TGI,RXF 393 renal,30.5 µM
same,TGI,SK-MEL-2 melanoma,43.9 µM
